EC50 data for 26 compounds are collected here from patent US20110230477A1, “COMPOUNDS, PHARMACEUTICAL COMPOSITION AND METHODS FOR USE IN TREATING METABOLIC DISORDERS” (Euroscreen S.A., priority 2008, published 2011).

Structures are written as SMILES.

The target of the assay is T1, human GPR43 receptor (hGPR43) (Homo sapiens, UniProt O15552).
T1 construct: expressed in transfected cells
T1 sequence (O15552 1-330): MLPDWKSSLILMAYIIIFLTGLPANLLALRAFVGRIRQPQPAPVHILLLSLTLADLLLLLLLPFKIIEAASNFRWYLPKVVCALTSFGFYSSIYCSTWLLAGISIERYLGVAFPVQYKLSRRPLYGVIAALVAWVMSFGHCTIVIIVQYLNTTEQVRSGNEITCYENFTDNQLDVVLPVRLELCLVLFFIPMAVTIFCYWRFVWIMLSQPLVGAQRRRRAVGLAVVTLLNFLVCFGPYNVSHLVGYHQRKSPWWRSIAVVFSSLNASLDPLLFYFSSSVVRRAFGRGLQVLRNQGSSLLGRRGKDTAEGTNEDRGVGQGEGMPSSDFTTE
As to the kind of experiment: GTPγS binding assay (SPA method). As to conditions: membranes expressing hGPR43; assay performed in the presence of SCFA; read-out: EC50 (nM) in GTPγ35S assay. Format: biochemical. The text has this:
The following assay can be used for determination of GPR43 activation. When a GPCR is in its active state, either as a result of ligand binding or constitutive activation, the receptor couples to a G protein and stimulates the release of GDP and subsequent binding of GTP to the G protein. The alpha subunit of the G protein-receptor complex acts as a GTPase and slowly hydrolyses the GTP to GDP, at which point the receptor normally is deactivated. Activated receptors continue to exchange GDP for GTP. […] The assay uses the ability of GPCR to stimulate [^35S]GTPγS binding to membranes expressing the relevant receptors. The assay can, therefore, be used in the direct identification method to screen candidate compounds to endogenous or not endogenous GPCR.
Membrane extracts were prepared from cells expressing the human GPR43 receptor (hGPR43) as follows: the medium was aspirated and the cells were scraped from the plates in Ca^++ and Mg^++-free Phosphate-buffered saline (PBS). The cells were then centrifuged for 3 min at 1500 g and the pellets were resuspended in buffer A (15 mM Tris-HCl pH 7.5, 2 mM MgCl2, 0.3 mM EDTA, 1 mM EGTA) and homogenized in a glass homogenizer. […] Protein content was assayed by the Folin method.
The assay was performed in the presence of SCFA, and was used to determine the activity of the compounds of the invention.
The [^35S]GTPγS assay was incubated in 20 mM HEPES pH7.4, 100 mM NaCl, 10 μg/ml saponin, 30 mM of MgCl2, 10 μM of GDP, 5 μg membrane-expressing hGPR43, 250 μg of wheatgerm agglutinin beads (Amersham, ref: RPNQ001), a range concentration of compounds (from 30 μM to 1 nM) in a final volume of 100 μl for 30 min at room temperature. The SCFA propionate was used at 1 mM final concentration as positive control. The plates were then centrifuged for 10 minutes at 2000 rpm, incubated for 2 hours at room temperature and counted for 1 min in a scintillation counter (TopCount, PerkinElmer).
What is called EC50 is the concentration giving half of the maximal effect. On to `O=C(O)C[C@@H](Cc1ccccc1)C(=O)Nc1ccc(-c2ccccc2Cl)cn1` [Compound 15, (R)-3-benzyl-4-(5-(2-chlorophenyl)pyridin-2-ylamino)-4-oxobutanoic acid], for which the EC50 is 426 nM.

On to `O=C(O)C[C@@H](Cc1ccccc1)C(=O)Nc1ccc(-c2ccccc2Cl)c[n+]1[O-]` [Compound 196, (R)-2-(2-benzyl-3-carboxypropanamido)-5-(2-chlorophenyl)pyridine 1-oxide], for which the concentration for a half-maximal effect (EC50) is 1830 nM.

With `CN(C(=O)C(CC(=O)O)Cc1ccco1)c1nc(-c2ccccc2Cl)cs1` (centres unmarked) [Compound 143], the EC50 amounted to 77 nM.

`O=C(O)C[C@@H](Cc1ccccc1)C(=O)N(CCCO)c1nc(-c2ccccc2Cl)cs1` [Compound 156, (R)-3-benzyl-4-((4-(2-chlorophenyl)thiazol-2-yl)(3-hydroxypropyl)amino)-4-oxobutanoic acid]: the EC50 came to 867 nM.

Turning to `NC(=O)CN(C(=O)[C@@H](CC(=O)O)Cc1ccccc1)c1nc(-c2ccccc2Cl)cs1` [Compound 121, (R)-4-((2-amino-2-oxoethyl)(4-(2-chlorophenyl)thiazol-2-yl)amino)-3-benzyl-4-oxobutanoic acid], the EC50 came out at 766 nM.

Take `O=C(O)C[C@@H](CC1CCCCC1)C(=O)Nc1nc(-c2ccccc2Cl)cs1` [Compound 18, (R)-4-(4-(2-chlorophenyl)thiazol-2-ylamino)-3-(cyclohexylmethyl)-4-oxobutanoic acid]: the EC50 came out at 104 nM.

In the case of `CN(C(=O)[C@@H](CC(=O)O)Cc1ccccc1)c1nc(-c2ccccc2-c2ccoc2)cs1` [Compound 135, (R)-3-benzyl-4-((4-(2-(furan-3-yl)phenyl)thiazol-2-yl)(methyl)amino)-4-oxobutanoic acid], the EC50 came out at 796 nM.

For `CN(C(=O)[C@H]1CC=CC[C@H]1C(=O)O)c1nc(-c2ccccc2Cl)cs1` (relative stereo) [Compound 100, cis-6-((4-(2-chlorophenyl)thiazol-2-yl)(methyl)carbamoyl)cyclohex-3-enecarboxylic acid], the EC50 was determined as 142 nM.

For the compound `O=C(O)C[C@@H](Cc1ccccc1)C(=O)Nc1nc(-c2ccccc2Cl)cs1` [Compound 2, (R)-3-benzyl-4-(4-(2-chlorophenyl)thiazol-2-ylamino)-4-oxobutanoic acid], the EC50 was determined as 273 nM.

Regarding `CN(C(=O)[C@@H](CC(=O)O)Cc1ccccc1)c1nc(-c2ccccc2-c2ccc(OC3CCOCC3)nc2)cs1` [Compound 141, (R)-3-benzyl-4-(methyl(4-(2-(6-((tetrahydro-2H-pyran-4-yl)oxy)pyridin-3-yl)phenyl)thiazol-2-yl)amino)-4-oxobutanoic acid], the EC50 came out at 996 nM.

In the case of `O=C(O)C[C@@H](Cc1ccccc1)C(=O)N(c1nc(-c2cc(C(F)(F)F)ccc2Cl)cs1)C1CC1` [Compound 191, (R)-3-benzyl-4-((4-(2-chloro-5-(trifluoromethyl)phenyl)thiazol-2-yl)(cyclopropyl)amino)-4-oxobutanoic acid], the EC50 came out at 37 nM.

Take `O=C(O)C[C@@H](CC1CCCC1)C(=O)N(CCO)c1nc(-c2cc(Cl)ccc2Cl)cs1` [Compound 172, (R)-3-(cyclopentylmethyl)-4-((4-(2,5-dichlorophenyl)thiazol-2-yl)(2-hydroxyethyl)amino)-4-oxobutanoic acid]: the EC50 was determined as 355 nM.

As to `O=C(O)C[C@@H](Cc1ccccc1)C(=O)Nc1nc(-c2cccc(C(F)(F)F)c2)cs1` [Compound 13, (R)-3-benzyl-4-oxo-4-(4-(3-(trifluoromethyl)phenyl)thiazol-2-ylamino)butanoic acid], the EC50 worked out at 875 nM.

For the compound `CN(C(=O)[C@@H](CC(=O)O)Cc1ccccc1)c1nc(-c2ccccc2-c2ccc(Cl)nc2)cs1` [Compound 108, (R)-3-benzyl-4-((4-(2-(6-chloropyridin-3-yl)phenyl)thiazol-2-yl)(methyl)amino)-4-oxobutanoic acid], the EC50 worked out at 305 nM.

With `C=CCN(C(=O)[C@@H](CC(=O)O)Cc1ccccc1)c1nc(-c2ccccc2Cl)cs1` [Compound 22, (R)-4-(allyl(4-(2-chlorophenyl)thiazol-2-yl)amino)-3-benzyl-4-oxobutanoic acid], the EC50 turned out to be 365 nM.

Consider `O=C(O)C[C@@H](Cc1ccc(F)cc1)C(=O)Nc1nc(-c2ccccc2Cl)cs1` [Compound 17, (R)-4-(4-(2-chlorophenyl)thiazol-2-ylamino)-3-(4-fluorobenzyl)-4-oxobutanoic acid], for which the EC50 is 643 nM.

In the case of `O=C(O)C[C@@H](Cc1ccccc1)C(=O)Nc1nc(-c2cc(Cl)ccc2Cl)cs1` [Compound 123, (R)-3-benzyl-4-((4-(2,5-dichlorophenyl)thiazol-2-yl)amino)-4-oxobutanoic acid], the 50% effective concentration (EC50) came to 134 nM.

In the case of `COc1ccc(CC(CC(=O)O)C(=O)N(C)c2nc(-c3ccccc3Cl)cs2)cc1` (centres unmarked) [Compound 99, 4-((4-(2-chlorophenyl)thiazol-2-yl)(methyl)amino)-3-(4-methoxybenzyl)-4-oxobutanoic acid], the EC50 was determined as 567 nM.

As for `O=C(O)C[C@@H](Cc1ccccc1)C(=O)N(CCOCc1ccccc1)c1nc(-c2ccccc2Cl)cs1` [Compound 201, (R)-3-benzyl-4-((2-(benzyloxy)ethyl)(4-(2-chlorophenyl)thiazol-2-yl)amino)-4-oxobutanoic acid], the EC50 was determined as 1360 nM.

As for `O=C(O)C[C@@H](Cc1ccccc1)C(=O)Nc1nc(-c2ccccc2Cl)c(F)s1` [Compound 20, (R)-3-benzyl-4-(4-(2-chlorophenyl)-5-fluorothiazol-2-ylamino)-4-oxobutanoic acid], the EC50 was 96 nM.

`CCN(C(=O)[C@@H](CC(=O)O)Cc1ccccc1)c1nc(-c2ccccc2Cl)cs1` [Compound 96, (R)-3-benzyl-4-((4-(2-chlorophenyl)thiazol-2-yl)(ethyl)amino)-4-oxobutanoic acid]: the EC50 worked out at 249 nM.

`CN(C(=O)[C@@H](CC(=O)O)Cc1ccccc1)c1nc(-c2ccccc2-c2ccc(N3CCOCC3)nc2)cs1` [Compound 133, (R)-3-benzyl-4-(methyl(4-(2-(6-morpholinopyridin-3-yl)phenyl)thiazol-2-yl)amino)-4-oxobutanoic acid]: the EC50 is 241 nM.

On to `CN(C(=O)[C@@H](CC(=O)O)CC1CCOCC1)c1nc(-c2cc(Cl)ccc2Cl)cs1` [Compound 168, (R)-4-((4-(2,5-dichlorophenyl)thiazol-2-yl)(methyl)amino)-4-oxo-3-((tetrahydro-2H-pyran-4-yl)methyl)butanoic acid], for which the EC50 came out at 43 nM.

For the compound `O=C(O)C[C@@H](Cc1ccccc1)C(=O)Nc1nc(-c2cc(Cl)sc2Cl)cs1` [Compound 112, (R)-3-benzyl-4-(4-(2,5-dichlorothiophen-3-yl)thiazol-2-ylamino)-4-oxobutanoic acid], the EC50 was found to be 538 nM.

With `CCCC[C@H](CC(=O)O)C(=O)Nc1nc(-c2ccccc2Cl)cs1` [Compound 16, (R)-3-(4-(2-chlorophenyl)thiazol-2-ylcarbamoyl)heptanoic acid], the EC50 came out at 389 nM.

With `COc1ncc(-c2ccc(Cl)cc2-c2csc(N(C(=O)[C@@H](CC(=O)O)CC3CCCC3)C3CC3)n2)cc1F` [Compound 224, (R)-4-((4-(5-chloro-2-(5-fluoro-6-methoxypyridin-3-yl)phenyl)thiazol-2-yl)(cyclopropyl)amino)-3-(cyclopentylmethyl)-4-oxobutanoic acid], the EC50 amounted to 27 nM.
